{
  "source": "patent US20100184769A1",
  "about": "“PDE INHIBITORS FOR THE TREATMENT OF HEARING IMPAIRMENT” (BAYER SCHERING PHARMA AKTIENGESELLSCHAFT, priority 2007, published 2010)",
  "system": "acustic trauma and threshold levels of rats",
  "assay": "Acoustic trauma (AT) in rats, hearing thresholds by auditory brainstem responses (ABR)",
  "assay_type": "in vivo, female Sprague Dawley Rats",
  "details": "10 mg/kg p.o. twice daily",
  "description": "All animal experiments were performed due to the “German Law for the Protection of Laboratory animals” and were conducted due to the approved guidelines for Animal Health and Welfare. Experiments were performed with female Sprague Dawley Rats with a body weight between 300-400 g. For induction of acoustic trauma (AT) animals were kept under anesthezia (Ketamine, Xylazin, Rompun i.p. injection) and exposed to band noise or pure tones using a calibrated loudspeaker inside a reverberating chamber. The sound consists of a continuous 10 kHz pure-tone presented at 115 dB SPL. All acoustic stimuli were calibrated at the head level of the animal. Rats were treated with either Vardenafil [10 mg/kg/ p.o. dissolved in Ethanol/Solutol/Water (10/40/50) with an application volume of 5 ml/kg] or Placebo [Ethanol/Solutol/Water (10/40/50) with an application volume of 5 ml/kg] twice daily. The first treatment with Vardenafil or Placebo was i.e. 1 h prior to AT. The development and progression/remission of hearing impairment was detected by measuring the hearing thresholds by recordings of auditory brainstem responses (ABR). The threshold was determined by the lowest sound pressure that produced ARBs distinct from noise level. Threshold level analysis was performed prior to the acustic trauma (AT) (Measurement A in table 1), 3-5 hours post AT (Measurement B in table 1), once daily, from day 1 to day 7 post AT (Measurement C to I in table 1) and finally 3 weeks post AT (Measurement J in table 1).",
  "data": [
    {"smiles": "CCCc1nc(C)c2c(=O)[nH]c(-c3cc(S(=O)(=O)N4CCN(CC)CC4)ccc3OCC)nn12", "note": "[Vardenafil, 2-(2-Ethoxy-5-(4-ethylpiperazin-1-yl-1-sulfonyl)phenyl)-5-methyl-7-propyl-3H-imidazo (5,1-f) (1,2,4)triazin-4-one]", "values": [
      {"measurement": "Hearing Threshold, Measurement B", "setting": "3-5 hours post AT, first treatment 1 h prior to AT", "result": 38.6, "unit": "dB SPL"},
      {"measurement": "Hearing Threshold, Measurement J", "setting": "3 weeks post AT", "result": 8.1, "unit": "dB SPL"},
      {"measurement": "Hearing Threshold, Measurement C", "setting": "day 1 post AT", "result": 28.3, "unit": "dB SPL"},
      {"measurement": "Hearing Threshold, Measurement D", "setting": "day 2 post AT", "result": 19.5, "unit": "dB SPL"},
      {"measurement": "Hearing Threshold, Measurement E", "setting": "day 3 post AT", "result": 16.5, "unit": "dB SPL"},
      {"measurement": "Hearing Threshold, Measurement F", "setting": "day 4 post AT", "result": 14.3, "unit": "dB SPL"},
      {"measurement": "Hearing Threshold, Measurement G", "setting": "day 5 post AT", "result": 12.4, "unit": "dB SPL"},
      {"measurement": "Hearing Threshold, Measurement H", "setting": "day 6 post AT", "result": 11.2, "unit": "dB SPL"},
      {"measurement": "Hearing Threshold, Measurement I", "setting": "day 7 post AT", "result": 10.9, "unit": "dB SPL"},
      {"measurement": "Hearing Threshold, Measurement A", "setting": "prior to acustic trauma (AT)", "result": 5.9, "unit": "dB SPL"}
    ]}
  ]
}
